The values that follow come from patent US8053424B2, “Composition and method of treating hearing loss” (The Regents of the University of Michigan, priority 2006, dated 2011).

This assay has as its system guinea pigs. In words: Threshold shift by auditory brainstem response (ABR) testing after 120 dB SPL octave band noise. The class given is in vivo, guinea pigs (NIH outbred strain). Particulars: FIG. 1-3 comparison between treatments.

Description: In guinea pig studies, hearing loss and the efficacy of the composition of the subject invention for treating hearing loss is measured as an average difference in threshold shift from baseline threshold sensitivity at 4, 8, and 16 kHz, as compared to an untreated control, after exposure to 120 decibel SPL Octave Band Noise centered at 4 kHz for five hours.
To obtain those results, the composition is typically injected each day, twice a day, for three days prior to exposure to the noise and injected again each day for at least five days, typically up to ten days, subsequent to the exposure to the noise. The threshold shift is measured 10 days after exposure to the noise using auditory brainstem response (ABR) testing.
In order to determine efficacy of the composition of the present invention in treating hearing loss, baseline threshold sensitivity of the guinea pigs is measured binaurally using auditory brainstem response testing at 4, 8, and 16 kHz.
For Example 1, the guinea pigs are first treated each day, twice a day, for three days prior to exposure to 120-dB SPL Octave Band Noise centered at 4 kHz for 5 hours. The noise causes trauma to middle or inner ears of the guinea pigs and is sufficient to cause permanent threshold shift, i.e., permanent hearing loss. […] Ten days after the noise exposure, auditory sensitivity is measured using ABR. […]

Take `Cc1c(C)c2c(c(C)c1O)CCC(C)(C(=O)O)O2` (centres unmarked) [Trolox®]: the “effect in minimizing threshold shift (additive effect), in words” value is “do not exhibit the same additive effect”.
Take `O=C([O-])c1ccccc1O.[Na+]` [salicylate, sodium salicylate]: the “effect in minimizing threshold shift (additive effect), in words” value is listed as “do not exhibit the same additive effect”.
